In patent US20230321100A1, “CD73 INHIBITOR AND APPLICATION THEREOF IN MEDICINE” (BETTA PHARMACEUTICALS CO., LTD, priority 2020, published 2023):

Assays:
[1] = Pharmacokinetic evaluation in mice after intragastric administration (plasma concentration by LC/MS/MS); format: in vivo; details: mouse, Balb/C female mice, single PO 10 mg/kg
Protocol: LC/MS/MS method was used to determine the plasma concentration of the embodiment compound at different time after intragastric administration in mice. Study the pharmacokinetic behavior of the compound in mice and evaluate its pharmacokinetic characteristics.
Methods: A single PK study (PO, 10 mg/kg) was performed on healthy Balb/C female mice (about 20 g) purchased from Beijing Vital River Laboratory Animal Technology Co., Ltd. About 1 hour before administration, a certain amount of drug was weighed and added with 5% DMSO and 95% hydroxypropyl betascyclodextrin (HP-β-CD) solution to form a colorless and clear solution. HP-β-CD solution is a 20% HP-β-CD solution prepared by adding HP-p-CD powder into 0.9% normal saline. Intragastric administration was performed at the dosage volume of 10 mL/kg, and blood was collected through the orbital venous plexus of mice. The blood collection time points were as follows: At 0.25, 0.5, 1.0, 2.0, 4.0, 7.0 and 24.0 hours before and after drug administration, 100 uL whole blood to K2EDTA anticoagulant tubes were taken at each time point, and the collected whole blood samples were centrifuged at 4000 rpm for 10 min. The plasma was separated and stored in the refrigerator at −80° C.
The above plasma samples were added to the pure acetonitrile solution containing the inner target for protein precipitation pre-treatment, centrifugation was performed at 10000 rpm for 10 min, and the supernatant was taken, mixed with water 1:1, and 10 μL to LC-MS/MS was used for detection. The linear range of compounds detected in plasma samples was 1-1000 ng/mL, and the data results were as follows:
The compound of the invention has good pharmacokinetic absorption and obvious pharmacokinetic advantages.

[2] = target: T1, CD73 (Calu-6 cells) (Homo sapiens, UniProt P21589); assay: Enzymatic activity detection at the cellular level (Calu-6 cells, AMP substrate, Cell-titer Glo luminescence); format: cell-based; details: enzymatic IC50 at the Calu-6 cell level, 30 min pre-incubation, 120 min at 37° C.
T1 construct: endogenous in cells; host or cells: Calu-6 cells
T1 sequence (P21589 27-549): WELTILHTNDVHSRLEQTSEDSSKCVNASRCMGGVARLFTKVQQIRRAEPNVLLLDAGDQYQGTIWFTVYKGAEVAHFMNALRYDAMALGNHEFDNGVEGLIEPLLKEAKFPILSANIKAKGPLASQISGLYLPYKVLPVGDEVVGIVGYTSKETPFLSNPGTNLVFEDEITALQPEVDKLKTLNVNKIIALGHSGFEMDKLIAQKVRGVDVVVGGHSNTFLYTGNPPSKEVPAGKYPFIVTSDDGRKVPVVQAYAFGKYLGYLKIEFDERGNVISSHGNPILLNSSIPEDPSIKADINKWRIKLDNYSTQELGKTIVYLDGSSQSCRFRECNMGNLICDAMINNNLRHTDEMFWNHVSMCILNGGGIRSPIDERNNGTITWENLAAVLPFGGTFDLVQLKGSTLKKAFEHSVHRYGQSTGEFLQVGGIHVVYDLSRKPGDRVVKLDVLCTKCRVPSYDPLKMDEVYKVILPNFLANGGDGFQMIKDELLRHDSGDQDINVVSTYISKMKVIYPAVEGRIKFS
Protocol: The Calu-6 cells were digested and re-suspended using TM buffer (25 mM Tris, 5 mM MgCl2, pH 7.5). Calu-6 cell suspension was seeded into 96 well cell culture plate, and the number of cells per well was 2.5×10^4, adding volume of 100 μL/well. Compound solution with gradient concentration was prepared by TM buffer, and 50 μL DMSO solution with different concentration was added into each pore cell. […] Pre-incubated in a shaker at 37° C. for 30 min. Each well was added with 50 μL 800 μM AMP solution. The shaker at 37° C. for 120 min was continued to incubate, then the 96-well plates were centrifuged and 50 μL supernatant was transferred to the new 96-well plates. […] The luminescence value was read by the multi-function enzymatic reader and converted into the inhibition percentage: Inhibition percentage=(1−reading/Max)*100. The “maximum value” was DMSO control. IC50 values were obtained by curve fitting with GraphPad Prism software.

Compound	IC50 [2]	other results
Cc1nnc(-c2c[nH]c(=O)[nH]c2=O)cc1[C@H]1C[C@@H]1C(C)C [Compound D1, reference compound]		AUC [1]: 0.677 µg·h/mL; Cmax [1]: 0.547 µg/mL; Tmax [1]: 30 min
O=c1[nH]cc(-c2cc([C@H]3C[C@@H]3c3ccccc3)c(Cl)nn2)c(=O)[nH]1 [Compound 57, 5-(6-chloro-5-((S,2S)-2-phenylcyclopropyl)pyridazin-3-yl)pyrimidine-2,4(1H,3H)-dione]	1.3 nM	AUC [1]: 10.7 µg·h/mL; Cmax [1]: 5.41 µg/mL; Tmax [1]: 30 min
COc1nnc(-c2c[nH]c(=O)[nH]c2=O)cc1C1CC1c1ccc(F)cc1 (stereo not drawn) [Compound 32, 5-(5-(2-(4-fluorophenyl)cyclopropyl)-6-methoxypyridazin-3-yl)pyrimidine-2,4(1H,3H)-dione]	5.4 nM	
COc1nnc(-c2c[nH]c(=O)[nH]c2=O)cc1C1CC1c1ccc(Cl)cc1 (stereo not drawn) [Compound 33, 5-(5-(2-(4-chlorophenyl)cyclopropyl)-6-methoxypyridazin-3-yl)pyrimidine-2,4(1H,3H)-dione]	3.9 nM	
C/C=C/[C@H]1C[C@@H]1c1cc(-c2c[nH]c(=O)[nH]c2=O)nnc1C [Compound 8, 5-(6-methyl-5-((1S,2R)-2-((E)-prop-1-en-1-yl)cyclopropyl)pyridazin-3-yl)pyrimidine-2,4(1H,3H)-dione]	92.7 nM	
COc1nnc(-c2c[nH]c(=O)[nH]c2=O)cc1[C@H]1C[C@@H]1C#Cc1ccc(C#N)cc1 [Compound 50]	12.6 nM	
CC(C)c1ccc(C2CC2c2cc(-c3c[nH]c(=O)[nH]c3=O)nnc2Cl)cc1 (stereo not drawn) [Compound 64]	22.3 nM	
Cc1ccc(C2CC2c2cc(-c3c[nH]c(=O)[nH]c3=O)nnc2Cl)cc1 (stereo not drawn) [Compound 24, 5-(6-chloro-S-(2-(p-tolyl)cyclopropyl)pyridazin-3-yl)pyrimidine-2,4(1H,3H)-dione]	5.2 nM	
N#Cc1nnc(-c2c[nH]c(=O)[nH]c2=O)cc1C1CC1c1ccc(F)cc1 (stereo not drawn) [Compound 35, 6-(2,4-dioxo-1,2,3,4-tetrahydropyrimidin-5-yl)-4-(2-(4-fluorophenyl)cyclopropyl)pyridazine-3-carbonitrile]	1.1 nM	
O=c1[nH]cc(-c2cc([C@H]3C[C@@H]3C#Cc3cccnc3)c(Cl)nn2)c(=O)[nH]1 [Compound 42]	4.4 nM	
O=c1[nH]cc(-c2cc([C@@H]3C[C@H]3c3ccccc3)c(Cl)nn2)c(=O)[nH]1 [Compound D3, reference compound]	1430 nM	
O=c1[nH]cc(-c2cc(C3CC3c3ccc(C(F)(F)F)cc3)c(Cl)nn2)c(=O)[nH]1 (stereo not drawn) [Compound 66]	3.9 nM	
O=c1[nH]cc(-c2cc([C@H]3C[C@@H]3C#Cc3ccccc3)c(Cl)nn2)c(=O)[nH]1 [Compound 18, 5-(6-chloro-5-((1S,2S)-2-(phenylethynyl)cyclopropyl)pyridazin-3-yl)pyrimidine-2,4(1H,3H)-dione]	5.6 nM	
O=c1[nH]cc(-c2cc(C3CC3c3cc(F)c(F)cc3F)c(Cl)nn2)c(=O)[nH]1 (stereo not drawn) [Compound 73]	5.9 nM	
Cc1nnc(-c2c[nH]c(=O)[nH]c2=O)cc1C1CC1c1ccccc1 (stereo not drawn) [Compound 22, 5-(6-methyl-5-(2-phenylcyclopropyl)pyridazin-3-yl)pyrimidine-2,4(1H,3H)-dione]	22.7 nM	
O=c1[nH]cc(-c2cc(C3CC3c3cccc(F)c3F)c(Cl)nn2)c(=O)[nH]1 (stereo not drawn) [Compound 70]	7 nM	
COc1nnc(-c2c[nH]c(=O)[nH]c2=O)cc1[C@H]1C[C@@H]1C#Cc1cccnc1 [Compound 53]	2.4 nM	

Compound	IC50 [2]	other results
O=c1[nH]cc(-c2cc(C3CC3c3ccc(F)c(C(F)(F)F)c3)c(Cl)nn2)c(=O)[nH]1 (stereo not drawn) [Compound 69]	13.4 nM	
O=c1[nH]cc(-c2cc([C@H]3C[C@@H]3C#Cc3ccc(Cl)cc3)c(Cl)nn2)c(=O)[nH]1 [Compound 47]	7.8 nM	
Cc1ccc(C2CC2c2cc(-c3c[nH]c(=O)[nH]c3=O)nnc2Cl)cc1F (stereo not drawn) [Compound 65]	4.7 nM	
Cc1nnc(-c2c[nH]c(=O)[nH]c2=O)cc1[C@H]1C[C@@H]1/C=C/C1CC1 [Compound 9, 5-(5-((1S,2R)-2-((E)-2-cyclopropylvinyl)cyclopropyl)-6-methylpyridazin-3-yl)pyrimidine-2,4(1H,3H)-dione]	200 nM	
C=C(C)c1nnc(-c2c[nH]c(=O)[nH]c2=O)cc1[C@H]1C[C@@H]1CC [Compound 2, 5-(5-((1S,2S)-2-ethylcyclopropyl)-6-(prop-1-en-2-yl)pyridazin-3-yl)pyrimidine-2,4(1H,3H)-dione]	329 nM	
COc1nnc(-c2c[nH]c(=O)[nH]c2=O)cc1C1CC1c1ccc(C#N)cc1 (stereo not drawn) [Compound 77, 4-(2-(6-(2,4-dioxo-1,2,3,4-tetrahydropyrimidin-5-yl)-3-methoxypyridazin-4-yl)cyclopropyl)benzonitrile]	7.2 nM	
N#Cc1nnc(-c2c[nH]c(=O)[nH]c2=O)cc1[C@H]1C[C@@H]1C#Cc1ccccn1 [Compound 56]	19.4 nM	
O=C(O)c1cccc(C2CC2c2cc(-c3c[nH]c(=O)[nH]c3=O)nnc2Cl)c1 (stereo not drawn) [Compound 75]	32 nM	
Cc1nnc(-c2c[nH]c(=O)[nH]c2=O)cc1C1CC1Cc1ccccc1 (stereo not drawn) [Compound D2, reference compound]	114 nM	
Cc1cc(C)cc(C2CC2c2cc(-c3c[nH]c(=O)[nH]c3=O)nnc2Cl)c1 (stereo not drawn) [Compound 63]	19 nM	
COc1nnc(-c2c[nH]c(=O)[nH]c2=O)cc1[C@H]1C[C@@H]1C#Cc1ccccn1 [Compound 52]	5.8 nM	
C=C[C@H]1C[C@@H]1c1cc(-c2c[nH]c(=O)[nH]c2=O)nnc1C [Compound 7, 5-(6-methyl-5-((1S,2R)-2-vinylcyclopropyl)pyridazin-3-yl)pyrimidine-2,4(1H,3H)-dione]	21 nM	
C=Cc1nnc(-c2c[nH]c(=O)[nH]c2=O)cc1[C@H]1C[C@@H]1CC [Compound 1, 5-(5-((1S,2S)-2-ethylcyclopropyl)-6-vinylpyridazin-3-yl)pyrimidine-2,4(1H,3H)-dione]	21.6 nM	
C=C[C@H]1C[C@@H]1c1cc(-c2c[nH]c(=O)[nH]c2=O)nnc1Cl [Compound 13, 5-(6-chloro-5-((1S,2R)-2-vinylcyclopropyl)pyridazin-3-yl)pyrimidine-2,4(1H,3H)-dione]	8.5 nM	AUC [1]: 16.9 µg·h/mL; Cmax [1]: 10.4 µg/mL; Tmax [1]: 30 min
N#Cc1ccc(C2CC2c2cc(-c3c[nH]c(=O)[nH]c3=O)nnc2Cl)cc1 (stereo not drawn) [Compound 25, 4-(2-(3-chloro-6-(2,4-dioxo-1,2,3,4-tetrahydropyrimidin-5-yl)pyridazin-4-yl)cyclopropyl)benzonitrile]	1.8 nM	
COc1nnc(-c2c[nH]c(=O)[nH]c2=O)cc1[C@H]1C[C@@H]1C#Cc1ccccc1 [Compound 21, 5-(6-methoxy-S-((1S,2S)-2-(phenylethynyl)cyclopropyl)pyridazin-3-yl)pyrimidine-2,4(1H,3H)-dione]	5.5 nM	
Cc1nnc(-c2c[nH]c(=O)[nH]c2=O)cc1[C@H]1C[C@@H]1/C=C/c1ccccc1 [Compound 16, 5-(6-methyl-5-((1S,2R)-2-((E)-styryl)cyclopropyl)pyridazin-3-yl)pyrimidine-2,4(1H,3H)-dione]	2.3 nM	
